The record followed here is ChEMBL document CHEMBL1201862, “PubChem BioAssay data set” (2004).

Assay [1] concerns the target G-protein coupled receptor 55 (Homo sapiens, UniProt Q9Y2T6). In words: GPR55 antagonists blocking LPI-driven arrestin recruitment, primary screen, imaging, U2OS, beta-arrestin-GFP, LPI agonist (AID 2013).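 Further: antagonist potency measured as reduced agonist-driven arrestin aggregation.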 It is filed as functional. (Recruitment of arrestin is a read-out of receptor activation apart from second messengers.)
The target in assay [2] is E3 ubiquitin-protein ligase Mdm2 (Homo sapiens, UniProt Q00987). In words: enhancers of MDM2-luciferase reporter signal, concentration-effect titration, project on inhibitors of MDM2 ubiquitin ligase, cellular assay, luminescent readout, 384-well plate format (AID 1394).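 Further: MDM2 E3 inhibitors raise luminescence so EC50 is for signal enhancement.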 It is filed as functional. On the technique in general: In a reporter assay the amount or activity of a reporter protein is the signal.

The target in a further assay is Paired box protein Pax-8 (Homo sapiens, UniProt Q06710). In words: inhibitors of PAX8-driven TPO luciferase reporter, dose response, RMG-I cells, cherry-pick (AID 687027).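 Further: luciferase reporter driven by Pax8 target thyroperoxidase promoter measured by SteadyGlo luminescence.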 Format: functional, cell-based.
For another assay, the system named is INS1. The assay can be described thus: beta cell apoptosis inhibitors, cytokine rescue, dose response, luminescence, retest (AID 449756).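 Further: cell death triggered by IL-1 beta plus TNF-alpha plus IFN-gamma mixture; protective hits raise ATP signal compared with cytokine alone wells.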 Format: functional, cell-based. The following applies: Rattus norvegicus.
Another assay deals with Beta-galactosidase (Escherichia coli, UniProt Q8VNN2). In words: PubChem AID 485352. It is filed as functional.
Assay [3] deals with T1, Type-1 angiotensin II receptor (Homo sapiens, UniProt P30556).
T1 sequence (P30556 whole entry): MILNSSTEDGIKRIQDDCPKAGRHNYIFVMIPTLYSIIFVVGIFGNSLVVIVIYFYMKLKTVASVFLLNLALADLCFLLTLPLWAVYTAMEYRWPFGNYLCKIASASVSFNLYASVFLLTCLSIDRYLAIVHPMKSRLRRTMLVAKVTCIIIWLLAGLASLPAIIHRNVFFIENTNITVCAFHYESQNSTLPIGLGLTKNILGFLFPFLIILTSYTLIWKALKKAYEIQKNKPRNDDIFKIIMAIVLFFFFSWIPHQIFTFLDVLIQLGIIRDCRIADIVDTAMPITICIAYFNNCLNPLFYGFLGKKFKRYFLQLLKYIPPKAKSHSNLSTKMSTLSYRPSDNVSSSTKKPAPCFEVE
In words: AT1 receptor antagonists, dose response, selectivity assay for APJ receptor antagonist project, cell-based, uHTS hits (AID 463214).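 Further: antagonist potency against angiotensin II stimulated AT1 response.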 Format: functional.

Assay [4] in a line: cytotoxicity in HEK-293T NF-kB-Luc cells, dose response, cytotoxicity control for B/T-cell NF-kB inhibitor project, cell-based, uHTS hits (AID 489019).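 Further: IC50 reflects cytotoxicity as loss of cell viability.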 Format: functional.
The subject of assay [5] is Jurkat. In words: antigen receptor-induced NF-kB inhibitors, dose response, Jurkat, luciferase reporter, luminescence, B- and T-cell (AID 489004).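 Further: NF-kB luciferase reporter Jurkat cells stimulated with PMA plus ionomycin.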 Format: functional, cell-based. The following applies: Homo sapiens.
The subject of a further assay is HeLa. The assay can be described thus: HeLa cell cytotoxicity, dose response, cytotoxicity control, 24 h, cherry-picked samples (AID 504726).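 Further: potency for cytotoxicity as loss of luminescence signal.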 It is filed as functional, cell-based. The following applies: Homo sapiens.
Another assay addresses T2, ORF 73 (Human herpesvirus 8, UniProt O40947).
T2 sequence (O40947 whole entry): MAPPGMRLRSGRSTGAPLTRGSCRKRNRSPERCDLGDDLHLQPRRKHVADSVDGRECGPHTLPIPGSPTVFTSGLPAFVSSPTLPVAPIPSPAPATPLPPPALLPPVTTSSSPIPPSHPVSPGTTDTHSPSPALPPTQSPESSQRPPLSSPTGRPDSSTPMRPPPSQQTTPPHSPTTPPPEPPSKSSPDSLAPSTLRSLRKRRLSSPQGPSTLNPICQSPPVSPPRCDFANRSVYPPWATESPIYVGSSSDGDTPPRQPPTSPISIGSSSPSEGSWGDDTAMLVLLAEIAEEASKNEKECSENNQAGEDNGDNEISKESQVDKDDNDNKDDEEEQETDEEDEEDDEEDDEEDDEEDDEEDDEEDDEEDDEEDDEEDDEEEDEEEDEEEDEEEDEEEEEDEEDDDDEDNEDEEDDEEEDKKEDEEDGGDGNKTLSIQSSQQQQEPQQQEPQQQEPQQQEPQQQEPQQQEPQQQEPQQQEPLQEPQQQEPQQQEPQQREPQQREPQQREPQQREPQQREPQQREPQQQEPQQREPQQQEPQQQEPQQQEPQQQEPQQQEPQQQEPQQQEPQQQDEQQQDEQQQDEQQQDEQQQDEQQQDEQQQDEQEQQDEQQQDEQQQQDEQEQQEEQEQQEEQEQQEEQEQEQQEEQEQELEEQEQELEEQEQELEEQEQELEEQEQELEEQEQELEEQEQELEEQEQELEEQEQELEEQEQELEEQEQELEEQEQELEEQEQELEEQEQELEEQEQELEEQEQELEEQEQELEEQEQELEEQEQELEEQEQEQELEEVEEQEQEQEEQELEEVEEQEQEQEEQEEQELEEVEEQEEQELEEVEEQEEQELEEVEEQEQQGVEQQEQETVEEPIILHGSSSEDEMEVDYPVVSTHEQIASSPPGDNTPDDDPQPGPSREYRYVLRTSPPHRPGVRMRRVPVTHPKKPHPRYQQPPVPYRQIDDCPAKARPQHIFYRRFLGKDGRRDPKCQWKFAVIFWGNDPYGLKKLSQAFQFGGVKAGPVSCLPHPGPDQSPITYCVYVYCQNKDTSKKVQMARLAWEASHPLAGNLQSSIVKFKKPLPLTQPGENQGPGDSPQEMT
In words: inhibitors of C-LANA binding to LBS DNA, dose response, biochemical, fluorescence polarization, cherry-picked samples (AID 504725).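 Further: fluorescence polarization of a labeled DNA duplex reporting LANA DNA binding; potency is for inhibitors that block LANA binding to the DNA.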 Details: species or system Human gammaherpesvirus 8.

Assay [6] deals with T3, Endoribonuclease toxin MazF (Escherichia coli K-12, UniProt P0AE70).
T3 sequence (P0AE70 whole entry): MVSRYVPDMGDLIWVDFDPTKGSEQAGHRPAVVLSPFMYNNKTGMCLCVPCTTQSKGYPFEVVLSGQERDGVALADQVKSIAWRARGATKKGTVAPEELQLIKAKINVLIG
In words: fluorescent RNA oligo signal without MazF, dose response, counter-screen for MazEF activator project, biochemical, fluorescence, single-stranded RNase substrate (AID 588502). It is filed as functional. Background: Counterscreens check selectivity or assay interference.

In assay [7] the target is T3, Endoribonuclease toxin MazF. The assay can be described thus: MazF toxin RNase activators, dose response, biochemical, fluorescence, single-stranded RNA substrate, uHTS hits (AID 588481). Format: functional.
The target in the next assay is Keap1/Nrf2 (Homo sapiens, UniProt Q14145). The assay can be described thus: Keap1-Nrf2 protein-protein interaction inhibitors, dose response, biochemical, fluorescence polarization, cherry-picked samples (AID 588683).
For assay [8], the target named is UDP-galactopyranose mutase (Mycobacterium tuberculosis, UniProt P9WIQ1). The assay can be described thus: Inhibitors of Mycobacterium tuberculosis UDP-galactopyranose mutase (UGM) enzyme Measured in Biochemical System Using Plate Reader - 2105-02_Inhibitor_Dose_CherryPick_Activity. [Related pubchem assays (depositor defined):AID504439].
For assay [9], the system named is Jurkat. In words: SAR Analysis of small molecule inhibitors of […] specific antigen receptor-induced NF-kB activation in a Jurkat cell line using a luminescence assay - Set 3. [Related pubchem assays (depositor defined):AID435022, AID435025, AID465]. Format: functional, cell-based. The conditions noted are these: Homo sapiens.
Assay [10] has as its system HEK293. In words: cytotoxicity in HEK293T NF-kB-Luc cells, SAR follow-up, cytotoxicity control for NF-kB activator project, cell-based, resazurin fluorescence (AID 493251). Format: functional. The conditions noted are these: Homo sapiens.
Assay [11] relates to HEK293. In words: SAR Analysis of small molecule inhibitors of B-cell specific antigen receptor-induced NF-kB activation in a HEK-293T cell line using a luminescence assay - Set 2. [Related pubchem assays (depositor defined):AID435022, AID435025, AID489021]. Format: functional, cell-based. The following applies: Homo sapiens.

The source made the active and inactive calls.

Sequence of E3 ubiquitin-protein ligase Mdm2 (Q00987 whole entry): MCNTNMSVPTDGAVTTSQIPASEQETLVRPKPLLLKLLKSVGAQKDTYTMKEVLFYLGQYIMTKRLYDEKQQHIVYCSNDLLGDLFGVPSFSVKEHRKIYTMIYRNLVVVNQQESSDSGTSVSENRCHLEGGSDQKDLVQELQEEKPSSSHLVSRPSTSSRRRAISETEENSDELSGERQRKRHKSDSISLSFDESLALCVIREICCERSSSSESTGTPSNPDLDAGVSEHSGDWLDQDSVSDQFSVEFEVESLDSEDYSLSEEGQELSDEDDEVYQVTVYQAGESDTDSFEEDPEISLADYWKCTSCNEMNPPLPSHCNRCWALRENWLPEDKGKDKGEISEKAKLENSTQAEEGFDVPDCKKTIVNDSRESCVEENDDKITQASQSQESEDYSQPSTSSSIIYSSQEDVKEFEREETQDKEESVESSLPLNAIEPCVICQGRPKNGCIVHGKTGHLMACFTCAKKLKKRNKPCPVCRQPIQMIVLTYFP
Sequence of Keap1/Nrf2 (Q16236 whole entry): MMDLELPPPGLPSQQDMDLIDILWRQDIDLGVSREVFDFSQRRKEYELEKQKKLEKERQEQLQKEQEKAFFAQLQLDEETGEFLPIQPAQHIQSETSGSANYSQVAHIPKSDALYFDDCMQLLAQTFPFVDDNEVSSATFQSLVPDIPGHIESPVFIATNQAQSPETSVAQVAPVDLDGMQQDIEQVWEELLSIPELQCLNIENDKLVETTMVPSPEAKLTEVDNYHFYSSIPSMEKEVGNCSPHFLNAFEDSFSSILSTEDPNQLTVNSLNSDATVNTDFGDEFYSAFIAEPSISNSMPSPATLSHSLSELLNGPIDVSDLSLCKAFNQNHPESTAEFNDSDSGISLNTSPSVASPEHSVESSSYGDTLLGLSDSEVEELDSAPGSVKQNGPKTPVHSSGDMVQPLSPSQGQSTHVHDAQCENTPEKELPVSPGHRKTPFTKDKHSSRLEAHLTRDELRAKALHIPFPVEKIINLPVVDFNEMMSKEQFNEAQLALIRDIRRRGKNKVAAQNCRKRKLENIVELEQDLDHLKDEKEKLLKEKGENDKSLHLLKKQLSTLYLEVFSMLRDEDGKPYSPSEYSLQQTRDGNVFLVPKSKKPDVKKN
Sequence of Keap1/Nrf2 (Q14145 whole entry): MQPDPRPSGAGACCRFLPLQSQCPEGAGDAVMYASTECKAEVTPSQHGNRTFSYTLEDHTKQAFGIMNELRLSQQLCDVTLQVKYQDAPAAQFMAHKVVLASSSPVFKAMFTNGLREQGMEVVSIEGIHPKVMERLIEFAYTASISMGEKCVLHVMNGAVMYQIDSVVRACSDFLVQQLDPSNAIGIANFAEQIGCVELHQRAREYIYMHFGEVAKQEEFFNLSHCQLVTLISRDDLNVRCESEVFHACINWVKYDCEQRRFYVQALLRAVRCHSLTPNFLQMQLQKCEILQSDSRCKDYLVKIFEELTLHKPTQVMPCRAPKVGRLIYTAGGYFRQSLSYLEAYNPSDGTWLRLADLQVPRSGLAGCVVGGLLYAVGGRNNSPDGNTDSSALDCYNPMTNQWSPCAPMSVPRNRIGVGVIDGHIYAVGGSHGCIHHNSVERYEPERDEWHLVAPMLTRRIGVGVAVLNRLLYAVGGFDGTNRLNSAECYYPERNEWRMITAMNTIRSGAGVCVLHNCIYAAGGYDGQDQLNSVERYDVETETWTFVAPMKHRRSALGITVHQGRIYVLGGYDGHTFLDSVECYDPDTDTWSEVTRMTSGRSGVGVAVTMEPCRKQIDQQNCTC
Sequence of G-protein coupled receptor 55 (Q9Y2T6 whole entry): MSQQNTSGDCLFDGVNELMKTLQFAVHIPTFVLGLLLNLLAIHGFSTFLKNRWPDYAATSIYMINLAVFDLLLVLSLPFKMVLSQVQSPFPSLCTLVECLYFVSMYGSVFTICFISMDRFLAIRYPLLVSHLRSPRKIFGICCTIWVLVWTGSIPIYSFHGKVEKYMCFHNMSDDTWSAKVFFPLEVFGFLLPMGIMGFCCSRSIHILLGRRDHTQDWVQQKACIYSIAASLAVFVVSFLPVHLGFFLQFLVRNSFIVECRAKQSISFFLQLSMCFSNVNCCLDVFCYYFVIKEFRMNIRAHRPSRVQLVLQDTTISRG
Sequence of Beta-galactosidase (Q8VNN2 whole entry): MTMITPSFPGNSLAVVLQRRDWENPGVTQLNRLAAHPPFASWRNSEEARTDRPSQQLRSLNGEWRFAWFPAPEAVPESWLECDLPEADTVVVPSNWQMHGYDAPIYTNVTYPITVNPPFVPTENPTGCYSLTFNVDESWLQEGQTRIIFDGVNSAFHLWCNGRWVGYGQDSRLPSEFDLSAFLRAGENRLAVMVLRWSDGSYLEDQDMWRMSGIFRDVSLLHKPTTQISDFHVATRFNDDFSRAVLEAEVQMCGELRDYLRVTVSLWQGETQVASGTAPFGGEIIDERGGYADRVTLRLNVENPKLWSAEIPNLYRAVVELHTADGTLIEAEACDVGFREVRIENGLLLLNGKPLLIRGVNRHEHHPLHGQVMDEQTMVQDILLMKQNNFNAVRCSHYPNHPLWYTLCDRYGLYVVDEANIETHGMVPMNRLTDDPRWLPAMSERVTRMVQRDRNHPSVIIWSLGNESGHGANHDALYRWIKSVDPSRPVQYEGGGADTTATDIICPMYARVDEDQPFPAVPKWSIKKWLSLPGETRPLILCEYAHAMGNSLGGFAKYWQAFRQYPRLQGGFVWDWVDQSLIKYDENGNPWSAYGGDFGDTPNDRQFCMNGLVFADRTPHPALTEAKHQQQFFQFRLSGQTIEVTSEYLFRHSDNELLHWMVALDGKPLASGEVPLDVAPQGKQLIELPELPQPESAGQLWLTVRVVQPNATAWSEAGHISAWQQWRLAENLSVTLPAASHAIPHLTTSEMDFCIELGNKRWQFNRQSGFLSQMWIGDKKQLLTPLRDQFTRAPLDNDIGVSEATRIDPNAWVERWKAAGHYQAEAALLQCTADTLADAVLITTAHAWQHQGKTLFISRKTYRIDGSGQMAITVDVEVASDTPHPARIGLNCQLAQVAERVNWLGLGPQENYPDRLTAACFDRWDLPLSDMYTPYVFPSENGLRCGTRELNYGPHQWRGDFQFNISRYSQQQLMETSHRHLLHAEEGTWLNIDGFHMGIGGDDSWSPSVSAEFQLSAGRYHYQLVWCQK
Sequence of UDP-galactopyranose mutase (P9WIQ1 whole entry): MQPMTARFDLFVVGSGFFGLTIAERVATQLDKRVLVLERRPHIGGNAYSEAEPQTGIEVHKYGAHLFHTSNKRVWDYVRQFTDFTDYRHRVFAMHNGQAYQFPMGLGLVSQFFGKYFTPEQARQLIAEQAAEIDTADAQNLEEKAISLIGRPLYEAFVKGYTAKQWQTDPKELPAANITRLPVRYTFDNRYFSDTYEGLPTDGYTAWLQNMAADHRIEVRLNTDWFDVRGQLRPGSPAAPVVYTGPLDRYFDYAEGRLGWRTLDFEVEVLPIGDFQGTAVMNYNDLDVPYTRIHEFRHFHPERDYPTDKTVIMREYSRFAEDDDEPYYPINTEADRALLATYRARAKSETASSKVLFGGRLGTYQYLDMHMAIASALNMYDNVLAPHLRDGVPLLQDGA
Sequence of Paired box protein Pax-8 (Q06710 whole entry): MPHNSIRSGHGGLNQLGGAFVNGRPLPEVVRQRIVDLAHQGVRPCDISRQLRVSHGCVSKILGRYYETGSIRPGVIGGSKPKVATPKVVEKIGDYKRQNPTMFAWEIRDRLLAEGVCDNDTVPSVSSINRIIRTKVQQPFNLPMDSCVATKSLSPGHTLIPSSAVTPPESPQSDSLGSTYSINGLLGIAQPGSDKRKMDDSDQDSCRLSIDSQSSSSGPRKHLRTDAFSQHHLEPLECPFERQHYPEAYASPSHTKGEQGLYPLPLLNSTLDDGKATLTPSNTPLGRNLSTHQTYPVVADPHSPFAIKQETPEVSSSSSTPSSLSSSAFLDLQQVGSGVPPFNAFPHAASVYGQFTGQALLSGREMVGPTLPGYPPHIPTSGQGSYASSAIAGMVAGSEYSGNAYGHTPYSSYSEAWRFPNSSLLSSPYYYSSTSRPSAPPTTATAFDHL

In general, IC50 refers to the concentration that inhibits the measured activity by half. As usually defined, the EC50 is the concentration needed to bring the measured effect to its halfway point. One may read the AC50 as the concentration at which the activity in the assay is half-maximal. In the case of `C=C1C(=O)O[C@@H]2C[C@@H](C)[C@@H]3C=CC(=O)[C@@]3(C)[C@@H](OC(C)=O)[C@H]12` [ANGUSTIBALIN], the half-inhibitory concentration (IC50) in [1] is 4.49 µM (active); in assay [3], 22 µM (not active); in assay [4] it was > 80 µM (inactive); in the assay with Jurkat [5] it was 0.99 µM (active). For the same compound, the EC50 is 7.68 µM (not active) in [2] and > 40 µM (inactive) on Beta-galactosidase. For the same compound, the concentration at half-maximal activity (AC50) is 0.742 µM (active) at Paired box protein Pax-8 and 2.13 µM (active) with INS1.
In the case of `Cn1nc(-c2ccccc2)c2nc3ccccc3nc21`, the half-maximal activity concentration (AC50) is 44.5 µM (active) in the assay on HeLa, 42.5 µM (active) at ORF 73, 14 µM (active) at Keap1/Nrf2 and 11.3 µM (active) in assay [8]. Moreover, the EC50 in [6] and in assay [7] was > 99 µM (inactive) in each case.
As for `CC(C)(C)c1ccc(-c2noc(CCC(=O)NC3CCCCC3)n2)cc1`, the half-maximal inhibitory concentration (IC50) with Jurkat [9] was 19.9 µM (active); in the assay on HEK293 [10], > 80 µM (inactive); in the assay on HEK293 [11] it was 2.68 µM (active).
